The values below are quoted from earlier work in US12174205B2, “Phosphatidylethanolamine-specific probes” (Northwestern University, priority 2014, dated 2024).

For the series the following is noted: at micromolar concentration: membrane distortion, PE translocation.

In the case of cinnamycin, the cytotoxicity entry is on record as “exhibit cytotoxicity”.
